Data published in patent publication US9844522B2 (LIFE & BRAIN GMBH, priority 2012, dated 2017).
“Also recorded” adds a separate entry of the source. Where two headings read alike, the source gives them in different places.

Experiments:
pGBMs [1] = assay: Combinatorial pharmacodynamics niclosamide and TMZ (alamarBlue); assay type: cell-based; details: Homo sapiens; 50 μM TMZ alone, pGBMs n=7, triplicate; read-out: Metabolic activity, % of control levels
Procedure: (§1) For pharmacodynamic analysis, 5×10^4 cells were plated in 12-well-plates at 24 hours before application of compound-series and compound combinations, respectively. alamarBlue®-based analysis was conducted at 3-5 days post treatment. Experiments were performed in triplicates. IMC50 was defined as the compound concentration that reduced the metabolic activity by 50% compared to control conditions and determined via data analysis in GraphPad Prism 4.0.

standard GBM cell lines = assay: as above; assay type: cell-based; details: Homo sapiens; 50 μM TMZ alone, GBMs (standard cell lines); read-out: Metabolic activity, % of control levels
Procedure: as §1

U87 glioma cell line = assay: Primary drug screening, alamarBlue metabolic activity; assay type: cell-based, human; details: 1 µM niclosamide for 5 days, triplicate
Procedure: (§2) The tested compounds were supplied to cells proliferating in a linear-exponential phase. For all used cell samples, respective titration experiments were conducted before analysis. 24 hours after seeding 2-3×10^3 cells/well into laminin/poly-L-ornithine coated 96-well plates, cells were treated with 1 μM of each compound (stock solution 10 mM in DMSO). Control cells were treated with 0.01-0.1% DMSO. Five days after application, metabolic activity as a measure of cell viability was determined using the alamarBlue® assay according to the manufacturers recommendations (Life Technologies). Fluorescence was measured using an Infinite200 microplate reader (Tecan) at λex=540 nm and λem=590 nm. Experiments were performed in triplicates for each sample.
(§3) A library comprising of 160 synthetic and natural toxic substances was used for the screening approach. Four pGBMs, previously shown to maintain patient- and GBM-specific signatures and to contain sub-populations of tumor cells with and without stem cell qualities served as a discovery platform (#'s 023, 035, 046, 106; see (10)). Primary screening was conducted based on the alamarBlue® assay determining the metabolic activity as a measure for cellular viability at day 5 following single application of the library's compounds. In the experiments, every compound that reduced the mean metabolic activity of the 4 pGBMs below 50% of control levels was considered as a ‘hit’.

[2] = system: pGBMs (primary glioblastoma cells); assay: as above; assay type: cell-based, human; details: for Metabolic activity in % of the activity of a control without niclosamide: triplicate
Procedure: as §2, §3

[3] = system: #155 non-malignant primary adult human neural progenitor cells (AHNPs); assay: as above; assay type: cell-based; details: control cells 155; 1 µM niclosamide for 5 days, triplicate
Procedure: as §2
as §3, with “In the experiments, every compound that reduced the mean metabolic activity of the 4 pGBMs below 50% of control levels was considered as a ‘hit’.” left out

21 pGBMs = assay: Pharmacodynamic analysis (alamarBlue dose-response, IC50); assay type: cell-based; details: Homo sapiens, 120 h
Procedure: as §1

[4] = system: glioma/GBM cell lines LN229, T98G, U87, U138, U373; assay: as above; assay type: cell-based, human; details: defined media (dm) conditions
Procedure: as §1

[5] = system: non-malignant hnNCs (human non-malignant neural cells); assay: Pharmacodynamic analysis (alamarBlue dose-response); assay type: cell-based; details: three hnNCs, defined culture conditions
Procedure: as §1

[6] = system: hnNCs co-cultured with pGBMs; assay: Co-culture of pGBMs and hnNCs; assay type: cell-based, human; details: dm conditions, niclosamide 1 μM
Cyclin D1 = assay: Western blot of Cyclin D1; assay type: cell-based, human; details: 24 hours post application
Procedure: (§4) Cell extracts were prepared at 24 to 144 hours following compound application and processed as described (49). Blot membranes were incubated overnight at 4° C. with antibodies against Cyclin-D1 (1:1000; BD Pharmingen), cleaved-Notch1 (1:1000), or phospho-S6 protein (1:1000; all Cell signaling) respectively. After washing, peroxidase-coupled secondary antibodies (Santa Cruz) were added for 1 hour. After washing, blots were developed using the ECL system (Millipore).

pGBMs [7] = assay: Proliferation kinetics / long-term cell growth (CellaVista); assay type: cell-based, human
pGBMs [8] = assay: Annexin V/Hoechst FACS analysis; assay type: cell-based, human; details: 5 days after application
[9] = system: non-malignant human cell sample #155; assay: Annexin V/Hoechst FACS analysis; assay type: cell-based; details: 5 days after application
Procedure: (B) CYCLIN D1 (CCND1)-western blot of cell extracts derived at this time point. […] Inset: mean data (n=5 pGBMs; **p<0.01). […] Right inset: representative scatter plots (#046). […] The graph exemplifies the time course of scratch closure for case #046 (mean±SD; triplicate analysis).
1×10^5 cells were collected at 5 days following compound application, settled by centrifugation, re-suspended in 100 μl AnnexinV buffer and incubated with 5 μl Annexin V-FITC for 1 hour at room temperature. To distinguish between living and dead cells, labeling with 1.2 μg/ml Hoechst 33258 was used Annexin V presence was determined using standard conditions in a LSRII equipped with FACSDiva Software (BD Bioscience). 2×10^4 cells were counted per measurement. The term ‘avital cells’ was used for Annexin V^+−, Annexin V^+/H33258^+, and H33258^+ cells.

pGBMs [10] = assay: Cell migration analysis (scratch assay); assay type: cell-based, human; details: sub-toxic concentrations, 125 nM
Procedure: 5×10^4 cells were plated into 12-well-plates coated with laminin/poly-L-ornithine. […] Three days after plating (at a cell density of 70%), a scratch/wound was inflicted with a sterile pipette tip. Thereafter, culture media was exchanged to remove non-adherent cells. The Plaque Assay application of the CellaVista® system (Roche Diagnostics) was used according to the manufacturer's instructions to monitor the scratch/wound size over time. Triplicate analysis data±SEM.

[11] = system: self-renewing, multipotent cells among pGBMs; assay: Neurosphere assay; assay type: cell-based, human; details: single application 1.5 μM, vital cells collected at day 5
[12] = system: pGBM #046 grafts in Rag2Il2rg−/− mice; assay: Orthotopic tumor xenograft of pre-treated cells; assay type: in vivo; details: niclosamide pre-treated #046 pGBMs, n=5
[13] = system: pGBM #GNV019 grafts in Scid Beige mice; assay: Orthotopic tumor xenograft of pre-treated cells; assay type: in vivo; details: niclosamide pre-treated #GNV019 cells, single exposure, n=6
[14] = system: Notch pathway (cleaved Notch 1-protein); assay: Western blot of cleaved Notch 1; assay type: cell-based, human; details: day 5 after single-dose exposure, 4 pGBMs
Procedure: as §4
(§5) It is known that a circumscribed number of transcription factors and associated signaling pathways are overactive in human cancer cells (21). […] Characteristic for the active state of this mechanism, known to play an important role for tumor invasion, is an enhanced nuclear accumulation of β-catenin, phosphorylated at Ser^552 (26).

[15] = system: mTOR signaling (phosphorylated S6-protein); assay: Western blot of phospho-S6 protein; assay type: cell-based, human; details: day 5 after single-dose exposure, 4 pGBMs
Procedure: as §4, §5

[16] = system: phospho-β-catenin (Ser552); assay: Immunofluorescence of nuclear phospho-β-catenin (Ser552); assay type: cell-based, human; details: pGBMs
Excerpt: as §5

WNT/CTNNB1 target genes = assay: qRT-PCR of β-catenin target genes; assay type: cell-based, human; details: pGBMs
Excerpt: as §5

[17] = system: NF-κB-signaling (phospho-p65-NFκB protein); assay: Western blot of phospho-p65-NFκB (phospho-RELA); assay type: cell-based, human
NFKBIA = assay: qRT-PCR of NFKBIA expression; assay type: cell-based, human; details: NFKBIA+/− pGBMs and standard GBM models under dm conditions
Excerpt: On the other hand, it is known that the inhibition of NF-κB alone may not severely affect most solid tumors, rather that it may help to prevent resistance of cancer cells to chemotherapy (30, 31).

[18] = studies in animals; cited from earlier work
NFKBIA+/− pGBMs = assay: Control study with NFκB activator in combinatorial treatment; assay type: cell-based, human; details: NFKBIA+/− genotypes; niclo 1 μM, temozolomide 50 μM, TNF-a 50 ng/ml, 3 days
Procedure: FIG. 16: TNF-a antagonizes synergistic activity in NFKBIA+/− pGBMs. Graphs present data from combinatorial treatment paradigms in NFKBIA+/− (black) versus NFKBIA+/+ (gray) pGBMs at 3 days after compound application (niclo, 1 μM; temozolomide, 50 μM; TNF-a, 50 ng/ml). Insets, Western blot analyses of pREL A, indicating NF-kB pathway activity 24 hours after exposure to TNF-a, (Ta; 50 ng/ml) or 0.002% bovine serum albumin (C; control). ***p<0.001; **p<0.01; *p<0.05 (triplicates; mean±SD; one-way ANOVA and Tukey post hoc tests).

## Cn1nnc2c(C(N)=O)ncn2c1=O [TMZ, temozolomide]
pGBMs [1]
  activity at 50 µM: 94 ± 4%
Standard GBM cell lines
  activity at 50 µM: 89 ± 8%

## O=C(Nc1ccc([N+](=O)[O-])cc1Cl)c1cc(Cl)ccc1O [niclosamide]
U87 glioma cell line
  Metabolic activity in % of the activity of a control without niclosamide: 66.5%
[2]; Homo sapiens, 120 h, day 5 after single application, 1 μM of each compound, read-out: Mean metabolic activity of the 4 pGBMs, % of control levels ('hit' criterion)
  activity at 1 µM: < 50%
[2]; average of pGBMs 023, 035, 046, 106, 1 µM niclosamide for 5 days
  Metabolic activity in % of the activity of a control without niclosamide, pGBMs average: 26.4%
[2]; pGBM 023, 1 µM niclosamide for 5 days
  Metabolic activity in % of the activity of a control without niclosamide: 32.3%
[2]; pGBM 035, 1 µM niclosamide for 5 days
  Metabolic activity in % of the activity of a control without niclosamide: 5.6%
[2]; pGBM 046, 1 µM niclosamide for 5 days
  Metabolic activity in % of the activity of a control without niclosamide: 34.6%
[2]; pGBM 106, 1 µM niclosamide for 5 days
  Metabolic activity in % of the activity of a control without niclosamide: 33.0%
[3]
  Metabolic activity in % of the activity of a control without niclosamide: 75.4%
21 pGBMs; day 5, read-out: IC50 (50% reduction of relative metabolic activity), lower end of range over 21 pGBMs
  IC50: ≥ 0.3 µM
21 pGBMs; day 5, read-out: IC50 (50% reduction of relative metabolic activity), upper end of range over 21 pGBMs
  IC50: ≤ 1.2 µM
[4]
  Niclosamide effects on standard GBM model cell lines under dm conditions: highly similar to findings obtained from pGBMs
[5]
  Sensitivity of non-malignant hnNCs compared with pGBMs: significantly lower level of sensitivity
[6]
  Sensitivity of hnNCs in co-culture with pGBMs: lower sensitivity of hnNCs can be confirmed
Cyclin D1
  Cyclin D1 expression: strong decrease
pGBMs [7]; single application 1.5 μM
  Delay of recovery of vital cells from cytostatic effects (long-term growth): 14 to 23 days
pGBMs [7]; single exposure, 1.5 μM, pGBMs 046, 078, 106
  Growth delay: 5 days
pGBMs [8]
  Vital cells (pro-apoptotic effect): strong and pGBM-selective decrease of vital cells
[9]
  Pro-apoptotic effects in non-malignant cells: lack of pro-apoptotic effects
pGBMs [10]
  Effect on migration (scratch closure): anti-migratory effects
[11]
  Frequencies of self-renewing, multipotent (sphere-forming) cells: reduced the frequencies of self-renewing, multipotent cells among pGBMs strongly
[12]; 10^6 cells into striatum
  Time after engraftment at which tumors developed / animals distressed: 153 ± 23 days
[12]
  Animals with tumor development: 4/5
[13]
  Tumor forming capacity of grafted cells: no animal that received niclosamide pre-treated grafts showed evidence for tumor formation; also recorded: completely extinguished the tumor forming capacity
[14]
  Notch pathway activity (cleaved Notch 1-protein levels): concentration-dependent inhibition
[15]
  Levels of phosphorylated S6-protein: decrease in all samples
[16]
  Nuclear phospho-β-catenin (Ser552) antigen: strong decrease
WNT/CTNNB1 target genes
  Expression of β-catenin target genes: significantly decreased
[17]; pGBMs #046 and #078 (NFKBIA+/−) only, of four cases
  NF-κB pathway (phospho-p65-NFκB protein levels): pathway inhibition
NFKBIA
  NFKBIA expression: strongly up-regulate
[18]
  Mutagenic, oncogenic, embryotoxic activity and cumulative effects: no mutagenic, oncogenic, or embryotoxic activity and no cumulative effects

## TNFα
[17]; TNF-a 50 ng/ml, 24 hours
  NFκB activity in pGBMs: activated NFκB
NFKBIA+/− pGBMs
  Effect on niclosamide/TMZ synergy: counteracted synergy effects
